Test results reported in patent US10149644B2, “Curcumin derivatives for amyloid-β plaque imaging” (The General Hospital Corporation, priority 2008, dated 2018).

How the values were obtained:
[1] = test system: Tg2576 mice; test: In vivo NIR imaging
Experimental: In vivo NIR imaging was performed using Kodak Imaging station 2000MM. For fluorescence excitation, three laser diodes at 660 nm with a total power of 10 mW/cm2 have been used yielding a uniform illumination of the whole animal. The fluorescent light emitted from the sample (mouse) was detected by a charge-coupled device (CCD) camera (Hamamatsu ORCA) equipped with a focusing lens system (macro lens 60 mm, 1:2.8, Nikon). The image matrix comprised of 532×256 pixels. A bandpass filter was used for the selection of the detection wavelength (700 nm). Integration time default was selected at 30 s. Images were acquired Kodak 1DTM 3.6.3 Network software and analysed using the Kodak™ 1D Analysis software.
Mice (n=3 for Tg2576 and n=3 for the littermates) were shaved before background imaging, and were i.v. injected CRANAD-2 (5.0 mg/kg) for each mouse. Fluorescence signals from the brain were recorded at pre-injection, and 10 min., 30 min., 60 min., 120 min., 240 min., and 480 min. after intravenous injection of the probe. To evaluate our imaging results, an ROI was drawn around the brain region, and the data were analyzed by the following modified equation (1) {24}, where Irel(t) is the relative fluorescence intensity at the certain time point, I(t) is the measured ROI value at this time point, I(pre) is the pre-injection background, and I(30) is the reading at 30 min. Since pre-injection background varied in different mice, this equation allowed us to correct for it. Fluorescence intensity decay curves were then generated based on this equation. Irel(t)=(I(t)−I(pre))/(I(30)−I(pre)) (1)
For in vivo specific binding (SP), the calculation was based on equation (2), where Irel(tg) is the relative fluorescence intensity of Tg2576, and Irel(contr) is the relative fluorescence intensity of the control littermates. P values were calculated by Student test. SP(t)={Irel(tg)−Irel(contr)}/Irel(tg) (2) Ex Vivo Histological Correlation.
Transgenic 11-month and 19-month old Tg2576 mice were used to validate the feasibility of CRANAD-2 as NIR imaging probe. Aged-matched wild type littermates served as controls. Images were recorded before and after i.v. injection of CRANAD-2 at 5.0 mg/Kg dosage. […] Furthermore, the signals from 19-month old Tg2576 (FIG. 11D) were remarkably brighter at all time points.
Semi-quantitative analysis of these images was conducted with selected region of interested (ROI), and two sets of data were generated. By normalizing the fluorescence intensity to that of 30 min. after the injection of the probe, we were able to create four well-fit decay curves with non-linear regression for two binding site model (Prism 3.0) for both 11- and 19-months old groups (R2=0.96, 0.97, 0.97, and 0.94 for 11-month control, tg2576, and 19-month control and tg2576 respectively) (FIG. 9A). By normalizing the signal to background fluorescence intensity (Fpre), and using the ratio between fluorescence intensity at time points studied ((F(t)) and Fpre) we could compare the signal change in Tg2576 group to that of the control group (FIGS. 9B,C)(e.g. F(t)/Fpre). Details of these methods are described in Materials and Methods contained herein.

[2] = BBB penetration and blood/brain clearance; type: in vivo, Balb/c mice; details: 10 mg/kg i.v.
Experimental: To test the BBB penetrating ability of the probe, Balb/c mice were used (n=3). […] Mice were perfused with saline solution and the brains were excised at 30 min., 1 h, 2 h, and 4 h after injection. Each brain sample was homogenized with 2.0 ml water and 3.0 ml ethyl acetate, and the homogenate was centrifuged for 5 min at 2,500 rpm. The fluorescence intensities of the ethyl acetate supernatant were recorded. The actual amounts (pmol) of the extracted probe were calculated according to the standard curve of CRANAD-2 in ethyl acetate.
Prior to perfusion, blood samples were taken at each time point to monitor the probe blood clearance. The blood samples were diluted with PBS buffer to 1.0 mL, followed by ethyl acetate (2.0 mL) extraction. The extractions were subjected to fluorescence intensity measurement, and the actual amounts of the probe for each mouse were calculated as the procedure for brain extraction described above.
In addition, to follow the probe clearance the inventors drew blood samples at each time point. […] LC-MS results also confirmed that the major component of the ethyl acetate extraction was CRANAD-2.

[3] = Log P measurement (octanol/water); type: physicochemical
Experimental: Log p measurement was performed according to the reported procedure {35}. CRANAD-2 (0.125 mM) in Octanol 2.0 mL was subjected to partition with octanol-saturated water 2.0 mL. The resulting mixture was stirred vigorously for 5 min., and centrifuged at 2,000 rpm for 5 min. The octanol layer was separated from water layer, and its fluorescence spectrum was recorded (excited at 590 nm). The above water layer was partitioned with water-saturated octanol 2.0 mL, and the octanol layer was separated after 5 min. vigorous stirring and 5 min. centrifuge at 2,000 rpm, and its spectrum was recorded. The log P value was calculated by the fluorescence intensity ratio at 690 nm for the above two octanol extractions.
In order for the probe to cross blood brain barrier, its lipophilicity (log P) should be within 2-5 range.

- Clearance from blood [2]: rapid clearance from blood
- Clearance from the brain vs blood [2]: significantly slower
- BBB penetrating ability ([2]; brain homogenate, fluorescence, HPLC, LC-MS): capability to cross BBB
- logP [3]: 3
Structure (SMILES): CN(C)c1ccc(/C=C/C2=CC(/C=C/c3ccc(N(C)C)cc3)=[O+][B-](F)(F)O2)cc1 [CRANAD-2]
- Declining of brain fluorescence signals, Tg2576 vs control ([1]; 5.0 mg/kg i.v., 11- and 19-month old): considerably slower
- Difference in F(t)/Fpre, Tg2576 vs control ([1]; 11-month old, 120 min): 0.52
- Difference in relative fluorescence decay Irel(t), Tg2576 vs control ([1]; 11-month old, 120 min, 5.0 mg/kg i.v.): 23%
- Difference in F(t)/Fpre, Tg2576 vs control ([1]; 11-month old, 240 min): 0.45
- Difference in relative fluorescence decay Irel(t), Tg2576 vs control ([1]; 11-month old, 240 min, 5.0 mg/kg i.v.): 16%
- Difference in F(t)/Fpre, Tg2576 vs control ([1]; 19-month old, 120 min): 0.43
- Difference in relative fluorescence decay Irel(t), Tg2576 vs control ([1]; 19-month old, 120 min, 5.0 mg/kg i.v.): 20%
- Difference in F(t)/Fpre, Tg2576 vs control ([1]; 19-month old, 240 min): 0.65
- Difference in relative fluorescence decay Irel(t), Tg2576 vs control ([1]; 19-month old, 240 min, 5.0 mg/kg i.v.): 30%
- Fluorescence intensity, transgenic vs control groups ([1]; 30, 60, 120 and 240 min after injection): higher than that of the control groups
- Slower decay rate, 19-month vs 11-month old Tg2576 ([1]; 120 min): 11%
- "Smart" amplification factor in vivo (ratio>1.0 = smart) ([1]; 120 min and 240 min, 11- and 19-month groups): “smart” probe in vivo
- Slower decay rate, 19-month vs 11-month old Tg2576 ([1]; 240 min): 13%
